According to US8580799B2 (priority 2008, dated 2013):

Assay: Measurement of logP values by HPLC on reversed phase columns (EEC directive 79/831 Annex V.A8)
Format: physicochemical
Conditions: method [a]: pH 2.3 with 0.1% phosphoric acid and acetonitrile as eluent

## CCCCCOC(=O)Nc1cccc(CON=C(c2ccccc2)c2nsnc2C(F)(F)F)n1 [Example 19]
  logp: 5.68^[a]
